The subject of series [1] is Cryptococcus neoformans (H99). In words: In vitro antimicrobial activity, CLSI microbroth dilution (yeast). It counts as cell-based. As to the method:
The antimicrobial activities of all derivatives against C. neoformans (H99), and clinical isolate of P. mirabilisas urease positive microorganism, were tested as recommended by the Clinical and Laboratory Standards Institute (CLSI) (M07-A9 for bacteria; M27-A3 for yeasts). The compounds were diluted, and stock solutions of 20 mg/mL in DMSO were prepared. Mueller–Hinton Broth (HiMedia) and RPMI-1640 (Sigma) were prepared as recommended for antimicrobial susceptibility testing of bacterial and fungal strains, respectively. Two-fold dilutions were made in the range of 1–512 μg/mL for tested compounds. The microbroth dilution test was accomplished using a 96-well microtiter plate containing growth control (drug free wellls) and sterility control (only broth media). The antimicrobial susceptibility test was accomplished by adding a cell suspension adjusted to the 0.5 McFarland standard (1–2 × 10^8 CFU/mL for bacterial strains; 1–5 × 10^6 cells/mL for yeast) to different concentrations of tested compounds. […] All experiments were performed in duplicates.
(In general: In broth dilution the organism is exposed to a series of concentrations in liquid medium.)

In the next series the test system is P. mirabilis. Description: Anti-ureolytic activity, colorimetric urea broth microdilution. The class given is cell-based, Proteus mirabilis. Particulars: read after 24 h, means ± SD of 3 independent experiments; for IC50: Proteus mirabilis, read-out: urease inhibitory activity IC50 (µg/mL) ± SD. The method, then: (§1) The colorimetric microdilution technique using urea broth media (Merck) was used to examine the ureolytic activity of C. neoformans (H99), and clinical isolate of P. mirabilis treated with tested substances (supplemented with glucose; pH = 6 for C. neoformans). Compounds in the concentration range of 1 to 512 μg/mL were exposed to ureolytic microorganisms, and the color of the medium was evaluated visually and spectroscopically at 560 nm after three days for C. neoformans and 24 h for P. mirabilis. The positive control, which included ureolytic bacteria but no drugs, changed color from yellow to dark pink or magenta. This shifts, allowing the determination of the inhibitory activity of compounds against the urease activity of organisms even without a microliter plate reader[45],[46].

In another series the target is Jack bean urease (Canavalia ensiformis, UniProt P07374). In words: Screening of urease inhibitory activities (indophenol method, enzymatic). It counts as biochemical. The method, then:
Urease inhibition effects of the synthesized compounds were determined according to the previously reported procedure[37]–[39]. Briefly, 100 μL of the synthesized compounds at different concentrations was added to 850 μL of urea as substrate and 50 μL urease (3 mg/mL) in phosphate buffer, pH = 7.4). After 30 min, to 100 μL of the incubated solution, 500 μL of solution I (5.0 g phenol and 25.0 mg sodium nitroprusside in 500 mL water) was added, followed by the addition of 500 μL of solution II (2.5 g sodium hydroxide, 4.2 mL sodium hypochlorite, and 5% chlorine in 500 mL water) which was further incubated at 37 °C for 30 min. The absorbance of blue-colored indophenol of each cell is related to the percentage of enzyme inhibition using the following equation at 625 nm. The IC50 values for all synthesized compounds were calculated using GraphPad Prism software (GraphPad Software, Inc., San Diego, CA).

Another series relates to Proteus mirabilis. In words: In vitro antimicrobial activity, CLSI microbroth dilution (bacteria). The class given is cell-based. Particulars: clinical isolate. The method, then: M27-A3 for yeasts). The compounds were diluted, and stock solutions of 20 mg/mL in DMSO were prepared. Mueller-Hinton Broth (HiMedia) and RPMI-1640 (Sigma) were prepared as recommended for antimicrobial susceptibility testing of bacterial and fungal strains, respectively. Two-fold dilutions were made in the range of 1-512 μg/mL for tested compounds. […] All experiments were performed in duplicates.

A further series deals with C. neoformans (H99). Description: Anti-ureolytic activity, colorimetric urea broth microdilution. It counts as cell-based, Cryptococcus neoformans. The conditions noted are these: C. neoformans, read after three days, means ± SD of 3 independent experiments; for IC50: Cryptococcus neoformans, 72 h, read-out: urease inhibitory activity IC50 (µg/mL) ± SD. The method, then:
as §1

The mark [2] stands for this setting: urease enzymatic assessment, mean ± SD of three independent experiments, read-out: IC50 (µM) ± SD.

Each structure is given as a SMILES string. Converted amounts (≈) assume the structure as drawn. Read-outs that look alike come from different tables or passages of the source.

Jack bean urease, sequence (P07374 whole entry, looked up): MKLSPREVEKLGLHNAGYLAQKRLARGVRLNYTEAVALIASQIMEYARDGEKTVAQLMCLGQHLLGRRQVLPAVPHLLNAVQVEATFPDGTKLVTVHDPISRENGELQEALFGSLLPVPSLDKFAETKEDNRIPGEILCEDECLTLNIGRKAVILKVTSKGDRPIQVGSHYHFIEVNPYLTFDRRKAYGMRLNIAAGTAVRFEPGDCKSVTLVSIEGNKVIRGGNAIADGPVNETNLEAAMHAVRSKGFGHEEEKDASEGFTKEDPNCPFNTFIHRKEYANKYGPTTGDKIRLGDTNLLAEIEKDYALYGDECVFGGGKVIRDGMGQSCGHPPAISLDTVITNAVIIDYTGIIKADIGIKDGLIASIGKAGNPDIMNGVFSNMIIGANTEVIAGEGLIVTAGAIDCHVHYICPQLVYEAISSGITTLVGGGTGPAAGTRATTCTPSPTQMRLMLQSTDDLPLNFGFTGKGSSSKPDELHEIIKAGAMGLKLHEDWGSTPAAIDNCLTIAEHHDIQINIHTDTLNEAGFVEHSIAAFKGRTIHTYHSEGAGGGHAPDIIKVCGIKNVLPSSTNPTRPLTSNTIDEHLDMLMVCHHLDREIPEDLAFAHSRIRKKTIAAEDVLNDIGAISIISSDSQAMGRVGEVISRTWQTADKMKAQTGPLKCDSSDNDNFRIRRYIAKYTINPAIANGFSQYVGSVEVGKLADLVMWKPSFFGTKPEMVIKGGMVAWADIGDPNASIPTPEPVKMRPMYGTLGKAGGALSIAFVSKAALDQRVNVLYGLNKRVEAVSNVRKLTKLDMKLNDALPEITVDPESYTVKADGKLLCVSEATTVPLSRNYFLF

Broadly, the MIC is the smallest concentration in the dilution series that meets the test's criterion for growth inhibition. As a reminder, the melting point is the temperature, or range, at which the solid turns liquid. For `Fc1cccc(CSc2nn3c(-c4ccccc4)nnc3s2)c1` [Compound 6c, 6-((3-fluorobenzyl)thio)-3-phenyl-[1,2,4]triazolo[3,4-b][1,3,4]thiadiazole], the melting point lay within 216 to 218 °C. Besides, the MIC in series [1] (read-out: MIC) was greater than 256 µg/mL. In addition, the IC50 in the series with P. mirabilis worked out at 79.8 ± 3.5 µg/mL (≈ 233 µM). Besides, the IC50 at Jack bean urease was found to be 1.4 ± 0.29 µM. Moreover, the MIC with Proteus mirabilis (read-out: MIC) is 256 µg/mL (≈ 748 µM). Besides, the IC50 in the series on C. neoformans (H99) amounted to 117 ± 6.4 µg/mL (≈ 343 µM).

Take `O=[N+]([O-])c1ccc(CSc2nn3c(-c4ccccc4)nnc3s2)cc1` [Compound 6l, 6-((4-nitrobenzyl)thio)-3-phenyl-[1,2,4]triazolo[3,4-b][1,3,4]thiadiazole]: the results for the “MIC” value (in series [1]; in the series on Proteus mirabilis) were greater than 256 µg/mL and 256 µg/mL (≈ 693 µM), respectively. The “urease inhibitory activity IC50 (µg/mL) ± SD” value was determined as 91.8 ± 7.0 µg/mL in the series with P. mirabilis and 113.6 ± 5.4 µg/mL with C. neoformans (H99). Also, the IC50 on Jack bean urease (setting [2]) turned out to be 2.22 ± 0.18 µM.

On to `Brc1ccc(CSc2nn3c(-c4ccccc4)nnc3s2)cc1` [Compound 6k, 6-((4-bromobenzyl)thio)-3-phenyl-[1,2,4]triazolo[3,4-b][1,3,4]thiadiazole], for which the “MIC” value in series [1] was greater than 256 µg/mL; in the series with Proteus mirabilis, 256 µg/mL (≈ 635 µM). Besides, the “urease inhibitory activity IC50 (µg/mL) ± SD” value in the series with P. mirabilis is listed as 113.7 ± 4.6 µg/mL; in the series with C. neoformans (H99), 118.7 ± 5.5 µg/mL. Moreover, at Jack bean urease (setting [2]), the IC50 worked out at 1.53 ± 0.17 µM.

Compound `Brc1ccccc1CSc1nn2c(-c3ccccc3)nnc2s1` [Compound 6i, 6-((2-bromobenzyl)thio)-3-phenyl-[1,2,4]triazolo[3,4-b][1,3,4]thiadiazole] gave a melting point of 210 to 212 °C. The MIC in series [1] (read-out: MIC) is greater than 256 µg/mL. Besides, the IC50 with P. mirabilis came out at 109 ± 6.2 µg/mL (≈ 271 µM). On Jack bean urease, the IC50 came out at 1.59 ± 0.14 µM. Further, the MIC in the series with Proteus mirabilis (read-out: MIC) amounted to 256 µg/mL (≈ 635 µM). In addition, in the series with C. neoformans (H99), the IC50 was 112 ± 6.7 µg/mL (≈ 278 µM).

For the compound `Cc1cccc(CSc2nn3c(-c4ccccc4)nnc3s2)c1` [Compound 6n, 6-((3-methylbenzyl)thio)-3-phenyl-[1,2,4]triazolo[3,4-b][1,3,4]thiadiazole], the “MIC” value was greater than 256 µg/mL in series [1] and 256 µg/mL (≈ 756 µM) against Proteus mirabilis. Moreover, the “urease inhibitory activity IC50 (µg/mL) ± SD” value with P. mirabilis was determined as 96.8 ± 4.7 µg/mL; with C. neoformans (H99), 112.3 ± 4.6 µg/mL. Moreover, the IC50 on Jack bean urease (setting [2]) was 1.23 ± 0.56 µM.

Turning to `Clc1ccccc1CSc1nn2c(-c3ccccc3)nnc2s1` [Compound 6e, 6-((2-chlorobenzyl)thio)-3-phenyl-[1,2,4]triazolo[3,4-b][1,3,4]thiadiazole], the melting point lay in the range of 224 to 226 °C. Moreover, the “MIC (µg/mL)” value in series [1] was “almost inactive”. Besides, the MIC in series [1] (read-out: MIC) was greater than 256 µg/mL. The IC50 in the series on P. mirabilis was found to be 93.3 ± 5.2 µg/mL (≈ 260 µM). The compound further gave an IC50 at Jack bean urease of 8.32 ± 1.21 µM. The MIC in the series on Proteus mirabilis (read-out: MIC) was 256 µg/mL (≈ 713 µM). Also, the IC50 in the series with C. neoformans (H99) was 102 ± 3.3 µg/mL (≈ 284 µM).

As for `NC(N)=S` [Thiourea, reference compound], at Jack bean urease (setting [2]), the IC50 turned out to be 22.5 ± 2.34 µM.

`OC(Cn1cncn1)(Cn1cncn1)c1ccc(F)cc1F` [Fluconazole, reference compound]: in series [1] (read-out: MIC), the MIC was determined as 2 µg/mL (≈ 6.53 µM).

Regarding `Cc1ccccc1CSc1nn2c(-c3ccccc3)nnc2s1` [Compound 6m, 6-((2-methylbenzyl)thio)-3-phenyl-[1,2,4]triazolo[3,4-b][1,3,4]thiadiazole], the “MIC” value in series [1] is listed as greater than 256 µg/mL; with Proteus mirabilis, 256 µg/mL (≈ 756 µM). The “urease inhibitory activity IC50 (µg/mL) ± SD” value is listed as 95.7 ± 6.6 µg/mL with P. mirabilis and 110.9 ± 3.8 µg/mL with C. neoformans (H99). Besides, the IC50 on Jack bean urease (setting [2]) was 1.6 ± 0.23 µM.

In turn, `Fc1ccccc1CSc1nn2c(-c3ccccc3)nnc2s1` [Compound 6b, 6-((2-fluorobenzyl)thio)-3-phenyl-[1,2,4]triazolo[3,4-b][1,3,4]thiadiazole] registered a melting point of 190 to 192 °C. In addition, in series [1] (read-out: MIC), the MIC is greater than 256 µg/mL. Besides, the IC50 in the series on P. mirabilis was 87.3 ± 4.9 µg/mL (≈ 255 µM). Moreover, the IC50 against Jack bean urease stood at 1.51 ± 0.21 µM. In the series with Proteus mirabilis (read-out: MIC), the MIC stood at 256 µg/mL (≈ 748 µM). The IC50 in the series on C. neoformans (H99) worked out at 111 ± 7.4 µg/mL (≈ 324 µM).

`CSc1nn2c(-c3ccccc3)nnc2s1` [Compound 6o, 6-(methylthio)-3-phenyl-[1,2,4]triazolo[3,4-b][1,3,4]thiadiazole] came in with a melting point of 213 to 215 °C.

Source of the values: article PMC10287669, “[1,2,4]triazolo[3,4-b][1,3,4]thiadiazole derivatives as new therapeutic candidates against urease positive microorganisms: design, synthesis, pharmacological evaluations, and in silico studies” (Scientific Reports, 2023).
